Results published in patent US11925623B2 (priority 2020, dated 2024).
Entries after “also recorded” stand apart in the source; their conditions may differ.

How the values were obtained:
[1] = tested on: TBARS (lipid peroxidation); experiment: Lipid peroxidation (TBARS) assay, i.c.v Abeta mouse model; format: in vivo, C57/BL6 mice; conditions: 50 and 100 mg/Kg
Protocol: (§1) Eight-week old Wild type C57/BL6 mice were treated i.p. with sulfanegen at 50 and 100 mg/kg dose during the entire duration of experiment. The mice were injected with intracerebroventricular (i.c.v) Aβ1-42 on day 3 after initiation of drug treatment (1 nmol/mouse). Behavioral test (T-maze) was conducted 6 days after Aβ1-42 injection, which was followed by euthanization on day 8. Biochemical analysis of the collected brain tissues was conducted using ELISA method for quantitation of Aβ1-42, and immunohistochemical analysis for GFAP (inflammatory marker). The brain tissues were also analyzed for oxidative stress markers (GSH assay, see Example 5; and protein carbonyls, see Example 6). • Groups: • Saline control N=12, (N=5 study 2; N=7 study 3) • Abeta control N=15, (N=7 study 2; N=8 study 3) • Sulfanegen, 50 mg/kg, N=7 • Sulfanegen, 100 mg/kg, N=7
The extent of lipid peroxidation, in the i.c.v Abeta mouse model (see Example 1), was correlated to the levels of thiobarbituric (TBA) acid-reactive entities (TBARS assay). Homogenized brains were exposed to TBA-trichloroacetic acid (TCA)-chloridic acid reagent (HCl; 0.37% TBA, 0.25 N HCl, and 15% TCA) (1:1:1, 2 mL) and incubated for 15 minutes at […]. […] Total protein was determined through the BCA protein assay. […]

[2] = Brain permeability: brain and plasma levels after i.p. dosing (LC-MS/MS); format: in vivo, mouse; conditions: 50 mg/kg i.p.
Protocol: (§2) To ascertain the distribution of sulfanegen to the brain, plasma and brain samples were harvested from intraperitoneally treated animal groups and analyzed via LC-MS/MS. A saline solution of sulfanegen was injected into the mouse peritoneum at a dose of 50 mg/kg. Specifically, samples were collected at 0.25, 0.5, 1, 2, and 4 h after the drug administration. […] Samples were immediately centrifuged at 3000 rpm for 10 min at 4° C., and the separated top plasma layer was transferred into a new tube. Blood samples were stored at −80° C. until LC-MS/MS analysis. For brain samples, brain tissue was extracted from the animal and washed with copious volumes of ice-cold D-PBS for removal of blood from the sample. The brain samples were homogenized by adding 1:5 (w/v) of ice-cold D-PBS into the tube and using a mechanical homogenizer on them. Homogenized brain samples were stored at −80° C.

IL-6 = IL-6 ELISA of brain tissue, i.c.v Aβ1-42 mice; format: in vivo, C57/BL6 mice
Protocol: as §1
(§3) IL-6 ELISA (BMS603HS, invitrogen) was used. Brain tissue samples were assayed in duplicate. Briefly, the strips provided in the kit were washed with 400 μL wash buffer (lx) twice. 50 μL of brain homogenates or standards were added to 50 μL sample diluent (PBS) in each well. […] The samples were read at 450 nm (reference wavelength 620 nm). Quantification of IL-6 in each well was conducted using the standard curve and was normalized to the weight of brain tissue.

GSH = experiment: Brain glutathione (GSH) and GSSG level, i.c.v Abeta mouse model; format: in vivo, C57/BL6 mice
Protocol: as §1
The brain GSH and GSSG level were measured with Glutathione assay kit (Cayman Chemical, Ann Arbor, MI) using the i.c.v Abeta mouse model (see Example 1). A total of 50 μl of sample was added to each well, and 150 μl the assay cocktail (MES buffer, reconstituted cofactor mixture, enzyme mixture, water, and DTNB) were added to the wells. The absorbance was measured at 414 nm using Spectra Max M5 microplate reader. Assay range was calculated under the standard curve (0-16 μM GSH or 0-8 μM GSSG). Results were expressed as nmol/mg protein and ratio of GSH/GSSG. Total GSH levels were higher in sulfanegen treated groups at both doses 50 mg/Kg and 100 mg/Kg. […] Reduced GSH levels were slightly lower in […] but not statistically significant.
The brain tissue for biochemical analysis was rapidly homogenized in these buffers 1) TBS (20 mM Tris-HCl and 150 mM NaCl) buffer with protease inhibitors and 5 M Guanidine-HCl in 50 mM Tris-HCl buffer for Aβ1-42 ELISA assay (FIG. 11, see Example 11 below), 2) 50 mM IVIES buffer for GSH (FIG. 8C, see Example 5) and Protein Carbonyl assay (FIG. 8B, see Example 6), 3) RIPA buffer with protease inhibitors for TBARS assay (FIG. 8A, see Example 7). […]

[3] = Oral bioavailability: plasma levels after i.v. and p.o. dosing (LC-MS/MS); format: in vivo; conditions: mouse
Protocol: as §2
Similar experimental design was used for determination of oral bioavailability of sulfanegen (Table 2). Plasma samples were collected after intravenous and oral administration of the compound and concentration of sulfanegen in these samples was determined using LC-MS/MS analysis.

APP/PS1 transgenic mice = experiment: T-maze cognitive assessment in APP/PS1 transgenic mice; format: in vivo; conditions: 75 mg/kg i.p. for 12 weeks; 7 and 12 month cohorts
Text: Spontaneous alternation in a T-maze was used to assess working memory abilities, based on the innate tendency of mice to alternate their choice of a goal arm based on their recall of the initial choice. The T-maze used was made of black plexiglass as per dimensions stated in Nat Protocol, 2006 [PMID: 17406205, www.nature.com/articles/nprot.2006.2]. Mice were placed in the start arm with the central divider in place so that when entering either of the goal arms the mice were not able to see the other one. The mice were allowed to move freely in the whole hall, and then, after being confined to the start arm for 30 seconds, the animal was allowed to move freely for a total of 15 arm entrees. […] The alternation percentage was calculated by dividing the number of times the animal entered alternating arms by 14 (free-choice trials). An arm entry is defined as the animal's tail tip entering the arm and repetitive arm entries as an animal re-entering the same arm three times in a row (e.g., 5 sequential entries into the same arm is 3 repetitive entries). Ratio of right and left arm entries was calculated to determine spatial preference of mice in different treatment groups. The data were analyzed using repeated measures analysis of variance (ANOVA) using Dunnett test. […]

SH-SY-5Y cells = experiment: In vitro amyloid toxicity protection assay (CCK-8); format: cell-based
Protocol: SH-SY-5Y cells were seeded at a density of 20000/well in a 96-well plate and incubated overnight at 37° C. Following day, cells were treated with media according to their respective treatment group in triplicate. Vehicle-only treated cells are used as control groups. […] On day 3, Cells were incubated with media containing CCK-8 (<10%). After 3 hours of incubation, the absorbance is measured at 450 nm (reference wavelength 600 nm) using Me5 plate reader (Spectramax). The final volume in a well is kept at 100 μL CCK-8 (CK04, Dojindo labs) in this assay.

H2S = experiment: Zn-agar entrapment H2S measurement in cell culture; format: cell-based
Protocol: To sterilized agar solution (1% w/v) was added 45 mM Zn Acetate and 4.5 mM NaOH (both prepared in sterile water). The solution was then applied to the non-adherent surface of the empty flasks and allowed to solidify. Cells were seeded in T-25 flask at 1 million cells/flask overnight. Cells were treated with sulfanegen at 0-500 μM concentrations and incubated for 6 hours. After the incubation period, the media was removed and 2 ml N,N-dimethyl-p-phenylenediamine chloride was added to the agar layer and incubated at RT for 10 mins. This was followed by addition of 400 μL of ferrous chloride and incubation for 20 minutes. The solution was then aliquoted into 96-well plate and absorbance was measured at 670 nm. The release of H2S was measured using a standard curve generated with NaSH under similar experimental conditions (incubation with NaSH was done for 1 hr).

TNFα = TNFα ELISA of brain tissue, i.c.v Aβ1-42 mice; format: in vivo, C57/BL6 mice; conditions: 50 and 100 mg/kg i.p.; no difference between doses
Protocol: as §1
as §3, with “TNFα” for “IL-6”, “kit (BMS607HS,” for “(BMS603HS,”, “nm.” for “nm (reference wavelength 620 nm).”

[4] = tested on: i.c.v Aβ1-42 injected nontransgenic mice; experiment: T-maze spontaneous alternation in i.c.v Aβ1-42 injected mice; format: in vivo, C57/BL6 mice
Protocol: as §1
Spontaneous alternation in a T-maze was used to assess working memory abilities, based on the innate tendency of mice to alternate their choice of a goal arm based on their recall of the initial choice. The T-maze used was made of black plexiglass as per dimensions stated in Nat Protocol, 2006 [PMID: 17406205, www.nature.com/articles/nprot.2006.2]. Mice were placed in the start arm with the central divider in place so that when entering either of the goal arms the mice were not able to see the other one. The mice were allowed to move freely in the whole hall, and then, after being confined to the start arm for 30 seconds, the animal was allowed to move freely for a total of 15 arm entrees. […] The alternation percentage was calculated by dividing the number of times the animal entered alternating arms by 14 (free-choice trials). […] Ratio of right and left arm entries was calculated to determine spatial preference of mice in different treatment groups. The data were analyzed using repeated measures analysis of variance (ANOVA) using Dunnett test.

[5] = Tolerability in i.c.v Aβ1-42 injected nontransgenic mice; format: in vivo, C57/BL6 mice
Protocol: as §1

protein carbonyls = experiment: Protein carbonyl assay, i.c.v Abeta mouse model; format: in vivo, C57/BL6 mice
Protocol: as §1
The protein carbonyl content is used as a marker of protein oxidation in the i.c.v Abeta mouse model (see Example 1). The amount of protein-hydrozone produced is quantified spectrophotometrically by Protein Carbonyl Colorimetric assay kit (Cayman Chemical, Ann Arbor, MI). 100 μl of sample was transferred into two tubes, one containing 400 μl of DNPH and the other tube containing 400 μl of 2.5 M HCl. […] The absorbance was measured at 385 nm using Spectra Max M5 microplate reader. […]

## O=C(O)C1(O)CSC(O)(C(=O)O)CS1 (stereo not drawn) [sulfanegen]
[1]
  TBARS (lipid peroxidation) levels in brain: significantly reduced
[2]
  crossing of the blood brain barrier (BBB): able to cross the blood brain barrier
[2]; samples 0.25-4 h
  AUC, brain: 51.495 µM·h
[2]; mouse, brain/plasma, intraperitoneal, read-out: B/P Ratio (Brain-Plasma ratio)
  Kp: 0.751
[2]; mouse, plasma, ip, samples 0.25-4 h
  AUC: 68.6 µM·h
IL-6; 50 mg/kg i.p.
  brain IL-6 level: reduction of increased IL-6 levels; also recorded: significant difference
IL-6; 100 mg/kg i.p.
  brain IL-6 level: Increase in IL-6
GSH; 50 mg/Kg and 100 mg/Kg
  total GSH levels in brain: higher
GSH; 100 mg/Kg, compared to both vehicle and amyloid beta treatment
  reduced GSH levels in brain: significantly higher
GSH; 50 or 100 mg/Kg
  GSH level as oxidative stress marker (legend of FIGS. 8A-8C): significantly reduced
[3]; iv, 10 mg/kg, read-out: AUC, plasma, i.v.
  AUC: 32.6 µM·h
[3]; oral, p.o. 50 mg/kg vs i.v. 10 mg/kg
  bioavailability: 15.1%
[3]; po, 50 mg/kg, read-out: AUC, plasma, p.o.
  AUC: 24.6 µM·h
APP/PS1 transgenic mice
  cognitive function (T-maze spontaneous alternation): improved cognitive function
SH-SY-5Y cells; SH-SY-5Y, 20 μM Aβ1-42, CCK-8
  protection against Aβ1-42 reduction in cell viability: prevented; also recorded: high protective effect
SH-SY-5Y cells; SH-SY-5Y, with 20 μM Aβ1-42
  cell growth: increase in cell growth, even above the control levels
SH-SY-5Y cells; no difference at higher 500 μM dose
  dose above which protective effect appears saturated: above 350 μM
H2S; 500 μM as compared to 250 μM, 6 h
  H2S release: decrease
H2S; up to 250 μM at 6 h, vs vehicle control
  H2S release: dose-dependent increase
TNFα
  brain TNFα level: significant decrease; also recorded: significant difference
[4]; 50 and 100 mg/kg i.p.
  cognitive behavior / cognitive impairment by T-maze: marked improvement; also recorded: prevented cognitive impairment
[4]; 50 and 100 mg/kg i.p., 6 days after Aβ1-42 injection
  T-maze alternation and repetition behavior: significant improvement
[4]; i.p. sulfanegen-treated mice
  spatial bias or anxiety-like behavior in T-maze: did not exhibit spatial bias or anxiety-like behavior
[5]; 50 mg/kg i.p.
  tolerability: well tolerated
[5]; 100 mg/kg i.p.
  mice that died during the experiment: Two mice (out of 7)
[5]; 100 mg/kg, total N=8/group
  toxicity: liver and kidney enzymes: elevations in liver and kidney enzymes in 2 animals
[5]; 50 and 100 mg/kg i.p., compared to Aβ1-42-only control group
  body weights: No marked decrease or increase in weights
[5]; both tested doses (50 and 100 mg/kg i.p.)
  other signs of distress: No other signs of distress
Protein carbonyls; 50 mg/kg
  protein carbonyl levels in brain: significantly reduced
Protein carbonyls; 50 or 100 mg/Kg
  protein carbonyl levels (legend of FIGS. 8A-8C): significantly reduced
